Several values for one entry are separate records, joined by “and”; a condition that tells them apart may be missing. Equal values may be shown once.

In the test the test system is 292921-168-R tumor spheroid viability. Description: Anticancer human tumor 292921-168-R patient-derived pancreatic carcinoma cell line growth inhibition. Conditions: spheroids with HUVEC and MSC; for viability, T/C: stronger effect = lower value. An excerpt:
Multicellular complex tumor spheroid response to DNA repair inhibitors in combination with DNA-damaging drugs
This study explores the anticancer activities of DNA-damaging drugs and inhibitors of DNA damage repair, both as single agents and in combinations. Complex tumor spheroids comprised of malignant cells, endothelial cells and mesenchymal stem cells served as an in vitro model for human solid tumors. This model system incorporates physiologically relevant features and patient-derived or established malignant cell lines with clinically relevant genetic alterations from many tumor types. Twenty-six patient-derived or established malignant cell lines were evaluated representing sarcoma, melanoma, small cell lung cancer (SCLC), non-small cell lung cancer (NSCLC), as well as bladder, ovarian and pancreatic cancers. The concentration ranges selected for each drug and investigational agent were based upon clinically achievable concentrations if the clinical Cmax of the agent was known.
Compounds. The drugs and compounds olaparib (NSC753686), talazoparib (NSC767125), berzosertib (NSC777718), elimusertib (NSC800525), nedisertib (NSC802822), VX-984 (NSC792969), AZD-1390 (NSC803789), temozolomide (NSC362856), topotecan (NSC609699), trabectedin (NSC813783), staurosporine (NSC755774), and gemcitabine (NSC613327) were obtained from the National Cancer Institute (NCI) Developmental Therapeutics Program Chemical Repository. The FDA-approved anticancer drug set is available from the Developmental Therapeutics Program at https://dtp.cancer.gov/organization/dscb/obtaining/available_plates.htm. […] The stock solutions were prepared in dimethyl sulfoxide (DMSO, Sigma-Aldrich, St. Louis, MO, cat. D2650) at 400-fold the tested concentration and stored at -70 degrees C. Prior to their use, the stock solutions were diluted in fresh medium and the final DMSO concentration in the assay was 0.25% (v/v). All drugs and investigational agents were tested over a range starting from a high concentration at or near the clinical Cmax and decreasing in half-log increments. If the clinical Cmax for an agent had not been determined, the highest concentration tested was 10 microM.
Cell Lines. The patient-derived cancer cell (PDC) lines: 156681-154-R-J1-PDC, 283228-195-R-J1-PDC, 287954-098-R-J1-PDC, 292921-168-R-J2-PDC, 349418-098-R-PDC, 425362-245-T-J1-PDC, 556581-035-R-J1-PDC, and BL0293-F563-PDC were received from the NCI Patient-Derived Models Repository (PDMR, https://pdmr.cancer.gov). The established cell lines HS-SY-2 (RRID:CVCL_8719), MPNST, and SYO-1 (RRID:CVCL_7146) were obtained from the Sloan Kettering Institute. The alveolar soft parts sarcoma cell line ASPS-1 (RRID:CVCL_S738) was established at the NCI and grown from internal seed stocks. The following established cell lines were purchased from the American Type Culture Collection (ATCC, Manassas, VA): G-401 (ATCC, cat. CRL-1441, RRID:CVCL_0270), SW982 (ATCC, cat. HTB-93, RRID:CVCL_1734), VA-ES-BJ (ATCC, cat. CRL-2138, RRID:CVCL_1785), NCI-H719 (ATCC, cat. CRL-5837, RRID:CVCL_1582), NCI-H196 (ATCC, cat. CRL-5823, RRID:CVCL_1509), NCI-H841 (ATCC, cat. CRL-5845, RRID:CVCL_1595), NCI-H1618 (ATCC, cat. CRL-5879, RRID:CVCL_1480), NCI-H1876 (ATCC, cat. CRL-5902, RRID:CVCL_1503), DMS 114 (ATCC, cat. CRL-2066; RRID:CVCL_1174), NCI-H211 (ATCC, cat. CRL-5824; RRID:CVCL_1529), and SW 1271 (ATCC, cat. CRL-2177, RRID:CVCL_1716). The small cell lung cancer cell line COR-L88 was purchased from Sigma-Aldrich (cat. 92031917-1VL, RRID:CVCL_1141). The non-small cell lung cancer cell lines NCI-H226 (RRID:CVCL_1544) and NCI-H322M (RRID:CVCL_1557) were established at the NCI and grown from internal seed stocks. Pooled donor human umbilical vein endothelial cells (HUVEC, Lonza, cat. CC-2519) and human mesenchymal stem cells (hMSC, Lonza, cat. PT-2501) were purchased from Lonza (Walkersville, MD).
Cell Culture. All cells were maintained in an incubator at 37 degrees C and 5% CO2 with 95% humidity. […]

Setting [1] is: compound alone, run of 10/17/2019.
Where [2] appears, read: compound alone, run of 10/25/2019.
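Also: spheroids exposed to compounds for 7 days.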

Consider `CC(C)n1c(=O)n(C)c2cnc3cc(F)c(-c4ccc(OCCCN5CCCCC5)nc4)cc3c21`, for which the viability, T/C is, setting by setting: (compound 0.0316 µM) 93.7% and 95.7% and 101%; (compound 0.1 µM) 92.2% and 101% and 92.6%; (compound 0.316 µM) 92.8% and 93.5% and 87.8%; (compound 1 µM) 92.4% and 91.1% and 84%; (compound 3.16 µM) 70.3% and 70.5% and 69.1%; (compound 10 µM) 29.2% and 26.8% and 32.8%. Also, the half-inhibitory concentration (IC50) (curve of compound) was 5.58 µM and 5.44 µM and 5.67 µM.
As to `CC1COCCN1c1cc(-c2ccnn2C)c2ccnc(-c3ccn[nH]3)c2n1` (stereo not drawn), the viability, T/C (compound 0.0316 µM) was 26.3% and 36.1% and 39.6%; the viability, T/C (compound 0.1 µM) was 14.2% and 20.1% and 22%; the viability, T/C (compound 0.316 µM) is 11.9% and 13.8% and 14.4%; the viability, T/C (compound 1 µM) is 13.8% and 13.7% (2×); the viability, T/C (compound 3.16 µM) is 14.8% and 14.5% and 14.9%; the viability, T/C (compound 10 µM) was 16.8% and 16% and 16.7%. Besides, the IC50 (curve of compound) is under 0.0316 µM.
As for `CC[C@@]1(O)C(=O)OCc2c1cc1n(c2=O)Cc2cc3c(CN(C)C)c(O)ccc3nc2-1`, the viability, T/C was 94.9% [middle of 10 runs] (compound 0.003 µM); 77.4% [middle of 10 runs] (compound 0.00949 µM); 36.8% [middle of 10 runs] (compound 0.03 µM); 12.2% [middle of 10 runs] (compound 0.0949 µM); 4.45% [middle of 10 runs] (compound 0.3 µM). Moreover, the 50% inhibitory concentration (IC50) under setting [1] was 19.4 nM [middle of 5 runs] and the IC50 under setting [2] was 22.6 nM [middle of 4 runs].
With `CNCc1ccc(-c2cc(-c3nc(-c4ccc(S(=O)(=O)C(C)C)cc4)cnc3N)on2)cc1`, the viability, T/C (compound 0.00949 µM) was 101% and 106% and 104%; the viability, T/C (compound 0.03 µM) is 101% and 94.1% and 95.1%; the viability, T/C (compound 0.0949 µM) was 79.2% and 80% and 91.3%; the viability, T/C (compound 0.3 µM) is 49.7% and 37.8% and 38.7%; the viability, T/C (compound 0.949 µM) is 26.5% and 25.3% and 20.8%; the viability, T/C (compound 3 µM) is 11.9% (2×) and 13.2%. Also, where the note is “curve of compound”, the half-inhibitory concentration (IC50) was 0.307 µM and 0.226 µM and 0.236 µM.
On to `COc1cc(C)[nH]c(=O)c1CN1CCc2c(Cl)cc(C(OC)C3COC3)c(Cl)c2C1=O` (stereo not drawn), for which the viability, T/C by setting is: (compound 0.0316 µM) 108% and 97.3% and 113%; (compound 0.1 µM) 112% and 106% and 113%; (compound 0.316 µM) 115% and 92.9% and 89.7%; (compound 1 µM) 109% and 95.4% and 97.2%; (compound 3.16 µM) 90.3% and 89.2% and 90.4%; (compound 10 µM) 101% and 89.8% and 75.1%. The concentration for half-maximal inhibition (IC50) (curve of compound) is over 10 µM.
As to `COc1cc2c(cc1O)CCNC21CSC2c3c(OC(C)=O)c(C)c4c(c3C(COC1=O)N1C(O)C3Cc5cc(C)c(OC)c(O)c5C(C21)N3C)OCO4` (stereo not drawn), the viability, T/C is 101% [middle of 10 runs] (compound 94.9 pM), 41.8% [middle of 10 runs] (compound 0.0003 µM), 3.57% [middle of 10 runs] (compound 0.000949 µM) and 0.16% [middle of 5 runs] (compound 0.003 µM). Also, the IC50 under setting [2] is 0.259 nM [middle of 10 runs].
With `COc1ccc([C@@H](O)c2cc(-c3ncnc4cc(N5CCOCC5)ccc34)c(F)cc2Cl)nn1`, the viability, T/C is 103% and 105% and 96.1% (compound 0.0316 µM); 99.4% and 97.3% and 101% (compound 0.1 µM); 91.3% and 87.4% and 87.8% (compound 0.316 µM); 57.4% and 56.3% and 64.4% (compound 1 µM); 37% and 34.3% and 35.8% (compound 3.16 µM); 20.6% and 19% and 21% (compound 10 µM). Moreover, the IC50 (curve of compound) is 1.57 µM and 1.45 µM and 1.78 µM.
For the compound `Cc1cc(C)c(CNC(=O)c2cc(-c3ccc(CN4CCOCC4)cc3)cc3c2cnn3C2CCCC2)c(=O)[nH]1`, the viability, T/C by setting is: (compound 0.0316 µM) 103% and 102% and 97.1%; (compound 0.1 µM) 101% and 104% and 88.9%; (compound 0.316 µM) 110% and 97.8% and 101%; (compound 1 µM) 106% and 103% and 98.5%; (compound 3.16 µM) 102% and 88.8% and 103%; (compound 10 µM) 75.6% and 68.8% and 63.9%. In addition, the IC50 (curve of compound) was over 10 µM.
Take `Cc1sc2c(c1C)C(c1ccc(Cl)cc1)=NC(CC(=O)Nc1ccc(O)cc1)c1nnc(C)n1-2` (stereo not drawn): the viability, T/C runs as follows: (compound 0.00949 µM) 119% (2×) and 110%; (compound 0.03 µM) 124% and 90% and 120%; (compound 0.0949 µM) 132% and 104% and 113%; (compound 0.3 µM) 114% and 102% and 124%; (compound 0.949 µM) 92.9% and 71.4% and 81.5%; (compound 3 µM) 49.3% and 34.5% and 57.9%. Further, the IC50 (curve of compound) is 2.95 µM and 1.85 µM and > 3 µM.
With `Cn1ncnc1[C@H]1c2n[nH]c(=O)c3cc(F)cc(c23)N[C@@H]1c1ccc(F)cc1`, the viability, T/C is, setting by setting: (compound 0.00949 µM) 101% and 87.5% and 95.8%; (compound 0.03 µM) 93.7% and 83.1% and 93%; (compound 0.0949 µM) 87.9% and 81.8% and 80.5%; (compound 0.3 µM) 68.6% and 62.7% and 63.2%; (compound 0.949 µM) 41.3% and 36.9% and 46%; (compound 3 µM) 14% (2×) and 11.2%. Further, the IC50 (curve of compound) is 0.661 µM and 0.537 µM and 0.692 µM.
With `Cn1nnc2c(C(N)=O)ncn2c1=O`, the viability, T/C (compound 1 µM) was 94.3% [middle of 10 runs]; the viability, T/C (compound 3.16 µM) was 95.5% [middle of 10 runs]; the viability, T/C (compound 10 µM) is 94.8% [middle of 10 runs]; the viability, T/C (compound 31.6 µM) was 90.8% [middle of 10 runs]; the viability, T/C (compound 100 µM) was 85.8% [middle of 10 runs]. In addition, the IC50 under setting [1] was over 100 µM.
Take `O=C(c1cc(Cc2n[nH]c(=O)c3ccccc23)ccc1F)N1CCN(C(=O)C2CC2)CC1`: the viability, T/C is, setting by setting: (compound 0.0949 µM) 91.5% and 96.1% and 103%; (compound 0.3 µM) 102% and 99.1% and 96%; (compound 0.949 µM) 91.7% and 100% and 98.5%; (compound 3 µM) 87.8% and 89.6% and 92.7%; (compound 9.49 µM) 66.9% and 61.2% and 64.2%; (compound 30 µM) 39.4% and 35.8% and 35.6%. Further, the IC50 (curve of compound) was 19.2 µM and 15.7 µM and 16.8 µM.
Take `[2H]c1nc(C)nc([2H])c1-c1cc(NC[C@@H](C)c2cccc3c(C(=O)NC)ccnc23)ncn1`: the viability, T/C by setting is: (compound 0.0316 µM) 106% and 103% (2×); (compound 0.1 µM) 104% and 93.4% and 89.7%; (compound 0.316 µM) 104% and 100% and 97.8%; (compound 1 µM) 115% and 99.2% and 93.3%; (compound 3.16 µM) 113% and 101% and 96.8%; (compound 10 µM) 95.7% and 91.2% and 95.8%. For the setting “curve of compound”, the IC50 was over 10 µM.

In general, viability, T/C refers to the ratio of treated to control. Broadly, the IC50 is the concentration that gives 50% inhibition.

The record behind these values is PubChem BioAssay AID1845196 (Molecular Pharmacology Branch, DTP, NCI, 2023).
